Assay results as given in patent publication US20190209506A1, “METHODS OF REDUCING OR PREVENTING OXIDATION OF LDL OR LIPID MEMBRANES IN A SUBJECT IN NEED THEREOF” (Amarin Pharmaceuticals Ireland Limited, priority 2018, published 2019).
Several values for one entry are separate records, joined by “and”; a condition that tells them apart may be missing. Equal entries are not always repeated.

Assays:
[1] = Membrane cholesterol domain structural integrity, x-ray diffraction (Example 9); details: C/P 1.5:1
Method: Multilamellar vesicles (MLVs) were prepared as binary mixtures that include palmitoyloleoylphosphatidylcholine (POPC) (1.0 mg total phospholipid per sample) and cholesterol at an elevated cholesterol-to-phospholipid (C/P) mole ratio of 1.5:1. […] Samples were shell-dried under nitrogen gas and placed under vacuum for 3 hours to remove residual solvent at room temperature. After desiccation, each sample was resuspended in saline buffer (0.5 mM HEPES, 154 mM NaCl, pH 7.3) to yield a final phospholipid concentration of 2.5 mg/mL. Lipid suspensions were then vortexed for 3 minutes at ambient temperature to form MLVs.
Briefly, a 100 μL aliquot of each MLV preparation (containing 250 μg MLV) was transferred to a Lucite® sedimentation cell fitted with an aluminum foil substrate designed to collect MLVs into a single membrane pellet upon centrifugation. Samples were then loaded into a Sorvall AH-629 swinging bucket rotor (DuPont Corp., Wilmington, Del.) and centrifuged at 35,000 g, 5° C., for 90 minutes.
After centrifugal orientation, sample supernatants were aspirated and aluminum foil substrates, each supporting a single membrane pellet, were removed from the sedimentation cells. Sample pellets were dried for 5-10 minutes at ambient conditions, mounted onto curved glass supports, and placed in hermetically-sealed, brass or glass containers (for immediate analysis or temporary storage, respectively). All x-ray diffraction experiments were conducted at 20° C., 74% relative humidity. The latter was established by exposing membrane samples to saturated solutions of […] (K2C4H4O6.½H2O) for at least 1 hour prior to experimental analysis.
Oriented membrane samples were aligned at grazing incidence with respect to a collimated, mono-chromatic CuKα x-ray beam (Kα1 and Kα2 unresolved; λ=1.54 Å) produced by a Rigaku Rotaflex RU-200, high-brilliance microfocus generator (Rigaku-MSC, The Woodlands, Tex.) as previously described (Mason et al., Biophys. J., vol. 55(4), pages 769-778 (1989)). The samples were initially subjected to x-ray diffraction analysis at least 12 hours after formation of the membrane pellets and retested for up to several days. Analytical x-rays were generated by electron bombardment of a rotating copper anode and are filtered through a thin nickel foil to provide monochromatic radiation (λ=1.54 Å). Collimation of the x-ray beam was achieved using a single Franks mirror. Diffraction data were collected on a one-dimensional, position-sensitive electron detector (Hecus X-ray Systems, Graz, Austria) at a sample-to-detector distance of 150 mm from the sample site.
The d-space for any given membrane multi bilayer is a measurement of the unit cell periodicity of the membrane lipid bilayer (e.g., the distance from the center of one lipid bilayer to the next including surface hydration), and is calculated from Bragg's Law, hλ=2d sin θ, where h is the diffraction order, λ is the wavelength of the x-ray radiation (1.54 Å), d is the membrane lipid bilayer unit cell periodicity, and θ is the Bragg angle equal to one-half the angle between the incident beam and scattered beam.
The presence of cholesterol domains in a given membrane sample results in the production of distinct Bragg (diffraction) peaks having singular periodicity values of 34 and 17 Å (typically referred to as first- and second-order cholesterol domain peaks). Under the specific temperature and relative humidity conditions established for these experiments, the second-order, 17 Å cholesterol domain peak was well-delineated from other, neighboring cholesterol and phospholipid diffraction peaks and was thus used to quantitate relative cholesterol domain peak intensity. Routines written in Origin 8.6 (OriginLab Corporation, Northampton, Mass.) were used to determine total peak area (associated with all diffraction peaks in a given pattern) against which the second-order cholesterol domain peak was normalized.

[2] = LOOH formation in membrane vesicles, EPA dose dependence (Example 18); format: biochemical; details: after four hours
Text: Iodometric analyses were used to measure LOOH formation in membrane vesicles reconstituted as binary mixtures of cholesterol and dilinoleoyl phosphatidylcholine.

human sdLDL = assay: Copper-induced sdLDL oxidation (Example 12); format: biochemical; details: 10.0 μM; copper-induced oxidation 1 hour
Method: (§1) All samples, with the exception of non-oxidized sdLDL controls, were subjected to copper-induced oxidation for 1 hour. Human umbilical vein endothelial cells (HUVECs) were incubated with the various sdLDL samples, stimulated with calcium, and monitored for nitric oxide (NO) and peroxynitrite (ONOO^−) release using nanosensor technology.

human LDL = assay: Copper-induced LDL oxidation, dose and time dependence, MDA (Example 17); format: biochemical
Method: LDL was isolated from human plasma by isopycnic centrifugation, separated into test samples of 100 μg/mL, and incubated at 37° C. for 30 min in the absence (vehicle) or presence of EPA over a range of concentrations of 1 to 10 μM. The samples were subsequently subjected to copper-induced oxidation. Following the copper-induced oxidation, LDL oxidation was measured over the course of six hours. Tables 8 and 9 enumerate the changes in MDA concentration expressed as molar equivalents for each of the vehicle and EPA test samples as a function of time (i.e., at 0 hours, 1 hour, 2 hours, 2.5 hours, and 3 hours).

HUVECs = assay: NO release from HUVECs incubated with treated, oxidized sdLDL (Example 12); format: cell-based, human; details: sdLDL treated at 10.0 μM
Method: as §1

CC/C=C\C/C=C\C/C=C\C/C=C\C/C=C\CCCC(=O)O [EPA, cis-5,8,11,14,17-eicosapentaenoic acid]
% change Vs control (cholesterol domain peak intensity) ([1]; D/P mole ratio 1:30): −65.5 ± 17.1%
Relative Cholesterol Domain Peak Intensity ([1]; D/P mole ratio 1:30): 14.6±5
reduction in cholesterol domain peaks compared to vehicle ([1]; D/P mole ratio 1:30): 65%
% change (vs. Control) ([1]; D/P mole ratio 1:60): −30.2 ± 27.9%
Relative Cholesterol Domain Peak Intensity ([1]; D/P mole ratio 1:60): 29.5 ± 10.9
% change (vs. Control) ([1]; D/P mole ratio 1:90): −15.0 ± 12.6%
Relative Cholesterol Domain Peak Intensity ([1]; D/P mole ratio 1:90): 36.0 ± 3.1
inhibition of LOOH formation ([2]; 1.0 μM, 10 μM copper sulfate): 6%
IC50 ([2]; read-out: half-maximum concentration of LOOH inhibition): ~6 µM
inhibition of LOOH formation ([2]; maximum concentration (range 1.0 to 10.0 μM)): 74%
reduction of sdLDL oxidation compared to vehicle (human sdLDL): > 90%
MDA Equivalent (human LDL; EPA 1.0 μM, 0 Hour): 0.24 µM and 0.26 µM
MDA Equivalent (human LDL; EPA 1.0 μM, 1 Hour): 3.85 µM and 3.14 µM and 2.87 µM
MDA Equivalent (human LDL; EPA 1.0 μM, 2 Hour): 10.33 µM and 10.92 µM and 10.63 µM
MDA Equivalent (human LDL; EPA 1.0 μM, 2.5 Hour): 10.60 µM and 10.92 µM and 10.65 µM
MDA Equivalent (human LDL; EPA 1.0 μM, 3 Hour): 9.44 µM and 9.95 µM and 9.93 µM
MDA Equivalent (human LDL; EPA 1.0 μM, 3.5 Hour): 10.13 µM and 10.87 µM
MDA Equivalent (human LDL; EPA 1.0 μM, 4 Hour): 8.93 µM and 9.39 µM
MDA Equivalent (human LDL; EPA 1.0 μM, 6 Hour): 9.79 µM and 10.10 µM
MDA Equivalent (human LDL; EPA 2.0 μM, 0 Hour): 0.25 µM and 0.26 µM and 0.19 µM
MDA Equivalent (human LDL; EPA 2.0 μM, 1 Hour): 1.15 µM and 1.04 µM
MDA Equivalent (human LDL; EPA 2.0 μM, 2 Hour): 7.34 µM and 7.35 µM and 7.67 µM
MDA Equivalent (human LDL; EPA 2.0 μM, 2.5 Hour): 9.45 µM and 9.62 µM and 9.60 µM
MDA Equivalent (human LDL; EPA 3.0 μM, 0 Hour): 0.21 µM and 0.22 µM
MDA Equivalent (human LDL; EPA 3.0 μM, 1 Hour): 0.56 µM and 0.57 µM and 0.53 µM
MDA Equivalent (human LDL; EPA 3.0 μM, 2 Hour): 1.72 µM and 1.78 µM and 1.74 µM
MDA Equivalent (human LDL; EPA 3.0 μM, 2.5 Hour): 3.09 µM and 3.01 µM and 2.91 µM
MDA Equivalent (human LDL; EPA 3.5 μM, 0 Hour): 0.17 µM and 0.26 µM and 0.29 µM
MDA Equivalent (human LDL; EPA 3.5 μM, 2 Hour): 1.04 µM and 1.05 µM and 0.90 µM
MDA Equivalent (human LDL; EPA 3.5 μM, 2.5 Hour): 1.16 µM and 1.43 µM and 0.95 µM
MDA Equivalent (human LDL; EPA 4.0 μM, 0 Hour): 0.19 µM and 0.21 µM and 0.22 µM
MDA Equivalent (human LDL; EPA 4.0 μM, 1 Hour): 0.37 µM and 0.41 µM and 0.40 µM
MDA Equivalent (human LDL; EPA 4.0 μM, 2 Hour): 1.00 µM and 0.78 µM and 0.71 µM
MDA Equivalent (human LDL; EPA 4.0 μM, 2.5 Hour): 1.26 µM and 0.94 µM and 0.80 µM
MDA Equivalent (human LDL; EPA 4.5 μM, 0 Hour): 0.28 µM and 0.17 µM and 0.18 µM
MDA Equivalent (human LDL; EPA 4.5 μM, 1 Hour): 0.28 µM and 0.30 µM and 0.21 µM
MDA Equivalent (human LDL; EPA 4.5 μM, 2 Hour): 0.38 µM and 0.50 µM and 0.44 µM
MDA Equivalent (human LDL; EPA 4.5 μM, 2.5 Hour): 0.36 µM and 0.19 µM and 0.31 µM
MDA Equivalent (human LDL; EPA 5.0 μM, 0 Hour): 0.19 µM and 0.26 µM and 0.27 µM
MDA Equivalent (human LDL; EPA 5.0 μM, 2 Hour): 0.35 µM and 0.33 µM and 0.30 µM
MDA Equivalent (human LDL; EPA 5.0 μM, 2.5 Hour): 0.22 µM and 0.24 µM and 0.21 µM
MDA Equivalent (human LDL; EPA 10.0 μM, 0 Hour): 0.21 µM and 0.24 µM and 0.29 µM
MDA Equivalent (human LDL; EPA 10.0 μM, 1 Hour): 0.12 µM and 0.06 µM
MDA Equivalent (human LDL; EPA 10.0 μM, 2 Hour): 0.27 µM and 0.29 µM and 0.23 µM
MDA Equivalent (human LDL; EPA 10.0 μM, 2.5 Hour): 0.01 µM and 0.02 µM
inhibition of LDL oxidation (human LDL; above 7.0 μM, through 6 hours): > 88%
IC50 (human LDL; at 6 hours, read-out: half-maximum concentration of inhibition of LDL oxidation): 5 µM
time up to which oxidation was inhibited (human LDL; concentrations ≤3 μM): up to 4 hours
increase of NO release compared to non-oxidized sdLDL (HUVECs): 23%
increase of NO release compared to oxidized LDL (HUVECs): 53%
